Measured values: ChEMBL document CHEMBL5465560, “Selectivity Literature for EUbOPEN Chemogenomic Library” (2024)

Tests used:
[1] = tested on: eIF-2-alpha kinase GCN2 (Homo sapiens), Q9P2K8 [S808G]; assay: Selectivity interaction (KinomeScan (DiscoverX)) EUB0000595a EIF2AK4; conditions: at 10 µM
[2] = target: T1, Tyrosine-protein kinase TXK (Homo sapiens) (UniProt P42681); conditions: at 10 µM
T1 sequence (whole entry): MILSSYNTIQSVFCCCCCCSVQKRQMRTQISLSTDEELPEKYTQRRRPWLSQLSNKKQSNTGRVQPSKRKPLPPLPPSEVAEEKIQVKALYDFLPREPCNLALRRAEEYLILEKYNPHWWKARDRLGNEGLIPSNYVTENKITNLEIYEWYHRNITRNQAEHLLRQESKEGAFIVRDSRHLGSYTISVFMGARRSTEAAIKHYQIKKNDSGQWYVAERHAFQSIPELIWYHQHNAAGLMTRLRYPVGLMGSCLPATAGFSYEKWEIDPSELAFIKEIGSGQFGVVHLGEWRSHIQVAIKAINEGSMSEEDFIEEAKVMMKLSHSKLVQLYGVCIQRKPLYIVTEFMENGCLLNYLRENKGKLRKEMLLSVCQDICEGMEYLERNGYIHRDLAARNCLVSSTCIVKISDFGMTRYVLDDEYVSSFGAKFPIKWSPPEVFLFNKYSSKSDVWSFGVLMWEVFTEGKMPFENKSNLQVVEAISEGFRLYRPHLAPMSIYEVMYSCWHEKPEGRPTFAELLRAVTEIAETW

[3] = target: Protein kinase C alpha type (Homo sapiens, UniProt P17252); assay: Selectivity interaction (Kinase screening (Upstate/Millipore)) EUB0000604a PRKCA
[4] = target: Death-associated protein kinase 1 (Homo sapiens, UniProt P53355); assay: Selectivity interaction (Kinase screening (Nanosyn)) EUB0000604a DAPK1
[5] = target: T2, Serine/threonine-protein kinase DCLK1 (Homo sapiens) (UniProt O15075); assay: Selectivity interaction (KinomeScan (DiscoverX)) EUB0001049a DCLK1; conditions: at 1 µM
T2 sequence (whole entry): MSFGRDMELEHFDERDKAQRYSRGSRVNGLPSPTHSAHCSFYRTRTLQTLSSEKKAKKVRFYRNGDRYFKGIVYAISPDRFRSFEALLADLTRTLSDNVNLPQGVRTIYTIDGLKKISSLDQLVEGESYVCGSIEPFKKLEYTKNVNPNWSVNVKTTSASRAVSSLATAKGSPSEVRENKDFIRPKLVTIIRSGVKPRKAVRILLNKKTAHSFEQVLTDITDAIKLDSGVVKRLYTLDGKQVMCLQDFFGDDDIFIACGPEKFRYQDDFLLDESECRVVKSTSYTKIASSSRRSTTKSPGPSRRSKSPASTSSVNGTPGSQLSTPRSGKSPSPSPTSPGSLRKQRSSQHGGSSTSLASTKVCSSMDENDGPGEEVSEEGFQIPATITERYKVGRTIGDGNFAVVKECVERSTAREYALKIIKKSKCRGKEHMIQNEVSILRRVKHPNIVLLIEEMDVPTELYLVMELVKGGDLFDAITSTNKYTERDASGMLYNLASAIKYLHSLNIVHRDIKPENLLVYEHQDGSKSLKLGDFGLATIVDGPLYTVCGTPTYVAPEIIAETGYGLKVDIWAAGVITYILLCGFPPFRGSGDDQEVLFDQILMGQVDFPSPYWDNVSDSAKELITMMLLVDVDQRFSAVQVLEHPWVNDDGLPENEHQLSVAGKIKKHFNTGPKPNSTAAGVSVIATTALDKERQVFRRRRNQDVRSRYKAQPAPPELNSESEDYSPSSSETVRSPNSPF

[6] = target: T3, Serine/threonine-protein kinase D2 (Homo sapiens) (UniProt Q9BZL6); assay: Selectivity interaction (ActivX KiNativ screen (ex vivo kinase selectivity in human PBMCs)) EUB0001619a PRKD2; assay type: cell-based; conditions: PBMC, at 1 µM
T3 sequence (whole entry): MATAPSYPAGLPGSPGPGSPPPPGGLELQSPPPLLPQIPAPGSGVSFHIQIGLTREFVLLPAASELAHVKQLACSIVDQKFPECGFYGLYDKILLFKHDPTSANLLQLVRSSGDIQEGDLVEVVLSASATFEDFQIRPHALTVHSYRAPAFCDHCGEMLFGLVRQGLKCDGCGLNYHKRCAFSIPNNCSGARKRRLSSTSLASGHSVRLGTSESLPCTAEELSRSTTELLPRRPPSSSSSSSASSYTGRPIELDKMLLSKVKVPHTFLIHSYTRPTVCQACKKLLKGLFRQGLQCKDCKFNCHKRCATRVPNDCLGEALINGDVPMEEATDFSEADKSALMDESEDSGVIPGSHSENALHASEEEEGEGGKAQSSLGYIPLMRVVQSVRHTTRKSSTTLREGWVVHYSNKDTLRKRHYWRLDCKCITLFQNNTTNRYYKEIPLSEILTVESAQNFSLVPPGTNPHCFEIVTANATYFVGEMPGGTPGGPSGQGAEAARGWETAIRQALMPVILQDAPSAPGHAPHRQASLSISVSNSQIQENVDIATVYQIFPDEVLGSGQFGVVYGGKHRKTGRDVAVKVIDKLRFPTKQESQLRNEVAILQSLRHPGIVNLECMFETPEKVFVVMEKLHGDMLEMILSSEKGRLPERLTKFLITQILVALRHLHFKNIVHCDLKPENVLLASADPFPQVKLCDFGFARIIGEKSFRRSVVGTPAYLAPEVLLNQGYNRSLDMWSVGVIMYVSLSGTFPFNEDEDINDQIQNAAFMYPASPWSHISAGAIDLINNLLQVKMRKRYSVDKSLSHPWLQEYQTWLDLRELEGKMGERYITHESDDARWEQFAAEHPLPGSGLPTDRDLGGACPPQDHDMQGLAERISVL

[7] = target: Epidermal growth factor receptor (Homo sapiens, UniProt P00533); assay: Selectivity interaction (Enyzmatic assay) EUB0000601a EGFR
[8] = target: Proto-oncogene tyrosine-protein kinase Src (Homo sapiens, UniProt P12931); assay: Selectivity interaction (Kinase panel (literature)) EUB0001199aCl SRC; conditions: at 1 µM
[9] = target: Fibroblast growth factor receptor 2 (Homo sapiens) (UniProt P21802); assay: Selectivity interaction (KinomeScan (DiscoverX)) EUB0000607a FGFR2; conditions: at 10 µM
[10] = target: BMP-2-inducible protein kinase (Homo sapiens) (UniProt Q9NSY1); assay: Selectivity interaction (KinomeScan (DiscoverX)) EUB0000618a BMP2K; conditions: at 10 µM
[11] = target: MAP/microtubule affinity-regulating kinase 3 (Homo sapiens) (UniProt P27448); assay: Selectivity interaction (ActivX KiNativ screen (kinase selectivity in THP-1 cell lysates)) EUB0000639a MARK3; assay type: subcellular; conditions: lysate, at 5 µM
[12] = target: Mitogen-activated protein kinase 1 (Homo sapiens, UniProt P28482); conditions: at 10 µM
[13] = target: Dual specificity mitogen-activated protein kinase kinase 1 (Homo sapiens, UniProt Q02750); assay: Selectivity interaction (Ambit KINOMEscan and KiNATiv profiling in Jurkat cells) EUB0000090b MAP2K1; assay type: cell-based; conditions: at 1 µM

Sequence of Proto-oncogene tyrosine-protein kinase Src (P12931 2-536 limits assumed): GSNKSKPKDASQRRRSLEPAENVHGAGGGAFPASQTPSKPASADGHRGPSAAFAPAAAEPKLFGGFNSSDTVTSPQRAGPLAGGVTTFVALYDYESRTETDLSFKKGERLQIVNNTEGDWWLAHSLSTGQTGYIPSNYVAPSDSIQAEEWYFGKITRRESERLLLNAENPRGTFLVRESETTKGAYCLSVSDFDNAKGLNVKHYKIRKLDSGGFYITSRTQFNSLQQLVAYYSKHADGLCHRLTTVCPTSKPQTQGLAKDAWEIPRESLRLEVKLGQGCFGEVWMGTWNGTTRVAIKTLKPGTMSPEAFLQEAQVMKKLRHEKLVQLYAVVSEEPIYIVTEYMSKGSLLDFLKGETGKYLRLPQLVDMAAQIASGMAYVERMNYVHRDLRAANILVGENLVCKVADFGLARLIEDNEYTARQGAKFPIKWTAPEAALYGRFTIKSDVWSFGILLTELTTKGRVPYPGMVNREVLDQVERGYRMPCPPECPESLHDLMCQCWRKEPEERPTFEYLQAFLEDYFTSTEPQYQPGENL
Sequence of BMP-2-inducible protein kinase (Homo sapiens) (Q9NSY1 whole entry, looked up): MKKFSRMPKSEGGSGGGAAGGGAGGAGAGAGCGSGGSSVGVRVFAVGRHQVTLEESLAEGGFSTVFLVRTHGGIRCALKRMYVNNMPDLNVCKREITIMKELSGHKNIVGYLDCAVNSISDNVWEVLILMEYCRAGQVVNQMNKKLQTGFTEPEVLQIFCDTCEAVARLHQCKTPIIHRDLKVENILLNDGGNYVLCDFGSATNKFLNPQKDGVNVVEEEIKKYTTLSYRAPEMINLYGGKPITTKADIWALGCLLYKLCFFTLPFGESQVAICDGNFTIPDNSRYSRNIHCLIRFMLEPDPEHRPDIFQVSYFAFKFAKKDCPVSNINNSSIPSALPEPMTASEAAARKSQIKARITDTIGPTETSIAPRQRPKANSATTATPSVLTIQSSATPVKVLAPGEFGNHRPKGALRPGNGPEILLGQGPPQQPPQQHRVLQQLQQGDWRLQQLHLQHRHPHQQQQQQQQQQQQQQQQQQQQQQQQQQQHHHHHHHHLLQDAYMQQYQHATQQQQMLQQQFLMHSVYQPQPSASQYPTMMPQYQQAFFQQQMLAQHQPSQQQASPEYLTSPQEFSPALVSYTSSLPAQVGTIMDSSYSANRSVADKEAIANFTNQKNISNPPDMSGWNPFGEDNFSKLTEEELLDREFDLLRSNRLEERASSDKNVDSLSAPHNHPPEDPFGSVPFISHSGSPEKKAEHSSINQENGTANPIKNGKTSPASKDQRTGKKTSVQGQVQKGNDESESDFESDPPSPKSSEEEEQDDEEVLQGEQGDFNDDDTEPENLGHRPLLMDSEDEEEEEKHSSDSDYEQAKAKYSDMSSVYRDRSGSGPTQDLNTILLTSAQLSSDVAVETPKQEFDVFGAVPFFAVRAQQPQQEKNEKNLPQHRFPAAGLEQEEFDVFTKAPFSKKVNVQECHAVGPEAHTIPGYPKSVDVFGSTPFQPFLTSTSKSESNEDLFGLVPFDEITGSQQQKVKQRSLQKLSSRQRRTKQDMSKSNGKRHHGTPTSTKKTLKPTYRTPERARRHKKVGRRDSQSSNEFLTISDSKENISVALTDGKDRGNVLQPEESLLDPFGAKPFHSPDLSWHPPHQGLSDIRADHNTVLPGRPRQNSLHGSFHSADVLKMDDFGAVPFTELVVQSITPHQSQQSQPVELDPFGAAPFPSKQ
Sequence of Fibroblast growth factor receptor 2 (Homo sapiens) (P21802 22-821 limits assumed): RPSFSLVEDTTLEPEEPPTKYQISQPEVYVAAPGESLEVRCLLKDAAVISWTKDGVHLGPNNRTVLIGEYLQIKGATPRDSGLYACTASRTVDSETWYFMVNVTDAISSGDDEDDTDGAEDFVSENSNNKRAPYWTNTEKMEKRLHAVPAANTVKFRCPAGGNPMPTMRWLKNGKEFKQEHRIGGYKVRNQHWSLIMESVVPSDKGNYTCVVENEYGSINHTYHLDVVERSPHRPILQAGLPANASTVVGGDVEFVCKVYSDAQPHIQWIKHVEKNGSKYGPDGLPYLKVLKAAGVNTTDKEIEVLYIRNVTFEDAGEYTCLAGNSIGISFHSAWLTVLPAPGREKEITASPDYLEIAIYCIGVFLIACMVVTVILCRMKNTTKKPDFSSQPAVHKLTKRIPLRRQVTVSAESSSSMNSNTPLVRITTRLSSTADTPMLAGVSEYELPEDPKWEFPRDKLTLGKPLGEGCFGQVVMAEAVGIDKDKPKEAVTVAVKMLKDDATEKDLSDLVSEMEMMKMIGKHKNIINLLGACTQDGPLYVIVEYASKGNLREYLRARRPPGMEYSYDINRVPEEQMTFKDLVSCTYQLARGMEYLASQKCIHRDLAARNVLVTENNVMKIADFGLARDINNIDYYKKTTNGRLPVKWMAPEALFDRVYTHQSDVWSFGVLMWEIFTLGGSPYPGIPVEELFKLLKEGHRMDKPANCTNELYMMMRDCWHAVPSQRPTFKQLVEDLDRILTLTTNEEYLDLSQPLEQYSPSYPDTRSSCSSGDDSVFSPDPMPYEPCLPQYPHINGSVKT
Sequence of Death-associated protein kinase 1 (P53355 whole entry, looked up): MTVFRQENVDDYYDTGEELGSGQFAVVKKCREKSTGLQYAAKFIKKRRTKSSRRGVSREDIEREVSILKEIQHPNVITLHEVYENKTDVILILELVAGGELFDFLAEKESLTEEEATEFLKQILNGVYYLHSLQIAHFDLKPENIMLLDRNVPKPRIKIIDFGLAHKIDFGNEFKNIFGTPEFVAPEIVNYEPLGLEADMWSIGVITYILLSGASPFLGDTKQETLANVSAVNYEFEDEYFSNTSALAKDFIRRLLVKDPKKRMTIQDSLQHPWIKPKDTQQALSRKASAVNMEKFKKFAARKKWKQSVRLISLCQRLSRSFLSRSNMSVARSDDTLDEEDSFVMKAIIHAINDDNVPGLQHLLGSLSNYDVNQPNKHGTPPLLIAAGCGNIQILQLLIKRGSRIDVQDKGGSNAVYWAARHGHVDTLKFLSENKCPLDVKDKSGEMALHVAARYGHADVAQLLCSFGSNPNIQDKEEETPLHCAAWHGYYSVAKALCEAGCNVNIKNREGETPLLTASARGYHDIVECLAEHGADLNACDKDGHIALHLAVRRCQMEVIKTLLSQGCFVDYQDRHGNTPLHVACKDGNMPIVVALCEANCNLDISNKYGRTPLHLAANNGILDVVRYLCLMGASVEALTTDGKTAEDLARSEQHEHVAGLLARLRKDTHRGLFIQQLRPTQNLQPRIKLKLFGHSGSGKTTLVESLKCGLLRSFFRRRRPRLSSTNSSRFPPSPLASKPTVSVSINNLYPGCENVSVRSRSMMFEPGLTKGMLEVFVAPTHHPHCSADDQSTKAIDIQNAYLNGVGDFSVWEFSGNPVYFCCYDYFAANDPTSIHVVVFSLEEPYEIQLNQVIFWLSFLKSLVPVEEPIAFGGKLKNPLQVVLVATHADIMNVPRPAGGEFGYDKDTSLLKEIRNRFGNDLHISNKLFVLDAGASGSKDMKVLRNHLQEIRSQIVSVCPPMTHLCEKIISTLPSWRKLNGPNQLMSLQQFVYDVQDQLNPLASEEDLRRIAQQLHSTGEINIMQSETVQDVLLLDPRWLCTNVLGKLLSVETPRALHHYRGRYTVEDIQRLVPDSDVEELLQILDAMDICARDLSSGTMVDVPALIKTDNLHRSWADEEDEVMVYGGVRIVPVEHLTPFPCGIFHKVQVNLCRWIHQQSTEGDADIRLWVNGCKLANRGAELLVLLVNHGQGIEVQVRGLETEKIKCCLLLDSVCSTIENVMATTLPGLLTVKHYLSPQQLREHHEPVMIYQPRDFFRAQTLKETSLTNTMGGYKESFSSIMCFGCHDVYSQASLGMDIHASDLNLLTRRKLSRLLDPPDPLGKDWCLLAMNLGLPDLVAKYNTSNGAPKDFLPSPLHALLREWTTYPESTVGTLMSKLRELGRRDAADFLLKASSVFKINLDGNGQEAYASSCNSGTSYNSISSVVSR
Sequence of MAP/microtubule affinity-regulating kinase 3 (Homo sapiens) (P27448 whole entry, looked up): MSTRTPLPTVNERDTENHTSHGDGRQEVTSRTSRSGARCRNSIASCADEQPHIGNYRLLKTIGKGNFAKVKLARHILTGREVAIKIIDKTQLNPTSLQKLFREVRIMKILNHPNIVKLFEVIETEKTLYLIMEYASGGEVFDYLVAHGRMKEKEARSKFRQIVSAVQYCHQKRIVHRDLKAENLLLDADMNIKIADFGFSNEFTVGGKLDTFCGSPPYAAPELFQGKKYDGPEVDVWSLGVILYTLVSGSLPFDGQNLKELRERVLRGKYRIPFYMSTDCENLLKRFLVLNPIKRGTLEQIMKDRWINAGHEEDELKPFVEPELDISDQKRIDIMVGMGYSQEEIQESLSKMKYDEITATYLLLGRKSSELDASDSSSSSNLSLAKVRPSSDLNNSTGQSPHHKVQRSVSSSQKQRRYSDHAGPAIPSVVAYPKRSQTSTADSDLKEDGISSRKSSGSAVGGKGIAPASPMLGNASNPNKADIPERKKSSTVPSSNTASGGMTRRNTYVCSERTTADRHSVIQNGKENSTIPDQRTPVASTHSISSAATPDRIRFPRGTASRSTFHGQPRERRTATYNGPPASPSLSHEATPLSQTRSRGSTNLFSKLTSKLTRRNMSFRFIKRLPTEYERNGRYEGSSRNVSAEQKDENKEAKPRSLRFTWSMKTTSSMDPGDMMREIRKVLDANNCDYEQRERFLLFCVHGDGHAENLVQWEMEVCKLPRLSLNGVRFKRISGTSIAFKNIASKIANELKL
Sequence of Mitogen-activated protein kinase 1 (P28482 whole entry): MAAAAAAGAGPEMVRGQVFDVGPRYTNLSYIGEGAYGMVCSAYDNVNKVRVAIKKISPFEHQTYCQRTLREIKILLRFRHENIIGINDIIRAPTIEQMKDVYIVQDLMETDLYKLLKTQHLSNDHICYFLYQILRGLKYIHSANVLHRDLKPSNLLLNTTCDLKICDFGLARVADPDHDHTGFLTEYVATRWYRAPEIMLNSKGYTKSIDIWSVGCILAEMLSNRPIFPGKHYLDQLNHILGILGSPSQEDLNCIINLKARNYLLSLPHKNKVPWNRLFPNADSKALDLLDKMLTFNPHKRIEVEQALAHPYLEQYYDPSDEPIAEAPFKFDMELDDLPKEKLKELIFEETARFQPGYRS

## COCC(=O)NC/C=C/c1ccc2ncnc(Nc3ccc(Oc4ccc(C)nc4)c(C)c3)c2c1 [CP-724714]
[1]
  % of control: 81%

## Cc1cc([C@@H](C)Nc2ccccc2C(=O)O)c2nc(N3CCOCC3)cc(=O)n2c1 [AZD-6482]
[2]
  % of control: 90%

## Cc1cnc(Nc2ccc(F)cc2Cl)nc1-c1c[nH]c(C(=O)N[C@H](CO)c2cccc(Cl)c2)c1
[3]
  % of inhibition: 12%
[4]
  % of inhibition: 2%

## COc1cc(Nc2nc(C)cc(-c3cnn4nc(OC)ccc34)n2)cc(C(F)(F)F)c1
[5]
  % of control: 69%

## N#Cc1cccc(-c2c[nH]c3ncnc(N4CCOCC4)c23)c1
[6]
  % of inhibition: -2%

## CCc1cc(Nc2nccc(-c3c(-c4ccc(OC)c(C(=O)Nc5c(F)cccc5F)c4)nc4ccccn34)n2)c(OC)cc1N1CCC(N2CCN(S(C)(=O)=O)CC2)CC1
[7]
  IC50: > 10 µM

## CN1Cc2nccc(-c3cn(C)nc3-c3ccc(F)cc3)c2C1=O
[8]
  % of inhibition: 6%

## CNC(=O)Nc1ccc(-c2nc(N3CC4CCC(C3)O4)c3cnn(C4CCC5(CC4)OCCO5)c3n2)cc1
[9]
  % of control: 92%

## O[C@H]1CC[C@H](Nc2ncc3nc(Nc4c(F)cc(F)cc4F)n([C@H]4CCOC4)c3n2)CC1
[10]
  % of control: 100%

## CC[C@@H]1[C@H](F)C(=O)N[C@@H]1COc1nccc2cc(C(N)=O)c(OC)cc12 [ZIMLOVISERTIB]
[11]
  % of inhibition: 45.6%

## CCN(CC)CCCCNc1ncc2cc(-c3cc(OC)cc(OC)c3)c(NC(=O)NC(C)(C)C)nc2n1
[12]
  % of control: 100%

## CN(C)C/C=C/C(=O)Nc1ccc(C(=O)N2CCCC(Nc3ncc(Cl)c(-c4c[nH]c5ccccc45)n3)C2)cc1 (stereo not drawn)
[13]
  % of control: 99%
